# Test system: S. aureus USA300
# Test: In vitro staphyloxanthin production inhibition by NP-16 analogues
# Format: cell-based, Staphylococcus aureus
# Conditions: S. aureus USA300, methanol extract OD 450 nm, 300 nM to 700 nM
# Protocol: Evaluation of NP-16 analogues in Staphyloxanthin production
# The in vitro pigment inhibition studies were performed by S. aureus USA300 cultured in BHI with or without the presence of inhibitor compounds at 37° C. and 250 rpm for 36-48 hours. The bacteria were washed twice with PBS prior to the staphyloxanthin purification with methanol. The OD of the extracts were monitor at 450 nm using DTX880 multi-plate reader spectrophotometer (Beckman). The concentration range tested for the compounds were between 300 nM to 700 nM, and control groups were added with equal volume of DMSO.
# The cytotoxicity of NP-16 and some of its analogues was tested against Raw 264.7 cells, and the cell tolerance of each compounds were documented in Table 3. Along with the in vitro staphyloxanthin production of the NP-16 analogues were being tested, the compounds can exert staphyloxanthin production inhibition. The staphyloxanthin from the overnight-cultured bacteria were extracted with methanol and quantified in via spectrophotometry. The results were presented in relative ratio to NP-16 in both the inhibition ratio as well as the TC50 (concentration for decreasing cell viability by 50%) in Table 3 (sample names correspond to those listed in Table 1).
row,SMILES,Relative ratio to NP16 based on inhibition ratio
1,"O=C(/C=C/c1ccccc1)Nc1ccc(S(=O)(=O)N2CCCCC2)cc1 [NP16-XL-010, 3-phenyl-N-[4-(1-piperidine-1-sulfonyl)-phenyl]acrylamide]",1.43
2,"CC(=O)Oc1ccc(/C=C/C(=O)Nc2ccc(S(=O)(=O)N3CCCCC3)cc2)cc1 [NP16-XL-011, 3-(4-acetoxyl-phenyl)-N-[4-(1-piperidine-1-sulfonyl)phenyl]-acrylamide]",1.31
3,"CC(=O)Oc1cccc(/C=C/C(=O)Nc2ccc(S(=O)(=O)N3CCCCC3)cc2)c1 [NP16-XL-012, 3-(5-acetoxyl-phenyl)-N-[4-(1-piperidine-1-sulfonyl)phenyl]-acrylamide]",1.16
4,"CC(=O)Oc1ccccc1/C=C/C(=O)Nc1ccc(S(=O)(=O)N2CCCCC2)cc1 [NP16-XL-013, 3-(6-acetoxyl-phenyl)-N-[4-(1-piperidine-1-sulfonyl)phenyl]-acrylamide]",0.28
5,"O=C(/C=C/c1ccc(Br)cc1)Nc1ccc(S(=O)(=O)N2CCCCC2)cc1 [NP16-XL-014, 3-(4-bromophenyl)-N-[4-(1-piperidine-1-sulfonyl)phenyl]-acrylamide]",0.74
6,"O=C(/C=C/c1cccc(Br)c1)Nc1ccc(S(=O)(=O)N2CCCCC2)cc1 [NP16-XL-015, 3-(5-bromophenyl)-N-[4-(1-piperidine-1-sulfonyl)phenyl]-acrylamide]",1.18
7,"Cc1ccc(/C=C/C(=O)Nc2ccc(S(=O)(=O)N3CCCCC3)cc2)cc1 [NP16-XL-017, 3-(4-methylphenyl)-N-[4-(1-piperidine-1-sulfonyl)phenyl]-acrylamide]",0.09
8,"Cc1ccccc1/C=C/C(=O)Nc1ccc(S(=O)(=O)N2CCCCC2)cc1 [NP16-XL-018, 3-(6-methylphenyl)-N-[4-(1-piperidine-1-sulfonyl)phenyl]-acrylamide]",2.48
9,"O=C(/C=C/c1ccc(Br)cc1)Nc1ccc(S(=O)(=O)N2CCCc3ccccc32)cc1 [NP16-XL-029, 3-(4-bromophenyl)-N-[4-(1,2,3,4--tetra-hydroquinoline-1-sulfonyl)phenyl]-acrylamide]",0.53
10,"O=C(/C=C/c1ccccc1)Nc1ccc(S(=O)(=O)N2CCCc3ccccc32)cc1 [NP16-XL-030, 3-phenyl-N-[4-(1,2,3,4--tetra-hydroquinoline-1-sulfonyl)phenyl]-acrylamide]",1.26
11,"O=C(/C=C/c1ccc(Br)cc1)Nc1ccc(S(=O)(=O)N2CCc3ccccc3C2)cc1 [NP16-XL-031, 3-(4-bromophenyl)-N-[4-(3,4-dihydro-1H-isoquinoline-2-sulfonyl)phenyl]-acrylamide]",0.23
12,"O=C(/C=C/c1ccccc1)Nc1ccc(S(=O)(=O)N2CCc3ccccc3C2)cc1 [NP16-XL-032, 3-phenyl-N-[4-(3,4-dihydro-1H-isoquinoline-2-sulfonyl)phenyl]-acrylamide]",1.17
13,"O=C(/C=C/c1ccccc1)Nc1ccc(S(=O)(=O)N(C(=O)/C=C/c2ccccc2)c2ccccc2)cc1 [NP16-XL-036, 3-phenyl-N-{[4-(N-phenyl-3-phenylprop-2-enamido)sulfonyl]-phenyl}-acrylamide]",3.04
14,"O=C(/C=C/c1ccccc1)Nc1ccc(S(=O)(=O)Nc2ccccc2)cc1 [NP16-XL-037, 3-phenyl-N-[(4-phenylsulfamoyl)-phenyl]acrylamide]",3.02
15,"O=C(/C=C/c1ccccc1Br)Nc1ccc(S(=O)(=O)Nc2ccccc2)cc1 [NP16-XL-038, 3-(6-bromophenyl)-N-[(4-phenylsul-famoyl)phenyl]-acrylamide]",3.23
16,"O=C(/C=C/c1ccccc1Br)Nc1ccc(S(=O)(=O)N(C(=O)/C=C/c2ccccc2Br)c2ccccc2)cc1 [NP16-XL-039, 3-(6-bromophenyl)-N-{[4-(N-phenyl-3-6-bromophenyl-prop-2-enamido)-sulfonyl]phenyl}-acrylamide]",3.23
17,"O=C(/C=C/c1c(F)cccc1F)Nc1ccc(S(=O)(=O)Nc2ccccc2)cc1 [NP16-XL-040, 3-(2,6-difluoro-phenyl)-N-[(4-phenylsulfamoyl)-phenyl]acrylamide]",2.51
18,"O=C(/C=C/c1ccccc1F)Nc1ccc(S(=O)(=O)Nc2ccccc2)cc1 [NP16-XL-041, 3-(6-fluorophenyl)-N-[(4-phenyl-sulfamoyl)phenyl]-acrylamide]",3.17
19,"O=C(/C=C/c1cccnc1)Nc1ccc(S(=O)(=O)Nc2ccccc2)cc1 [NP16-XL-042, 3-(pyridin-3-yl)-N-[(4-phenyl-sulfamoyl)phenyl]-acrylamide]",1.44
20,"N#Cc1ccccc1/C=C/C(=O)Nc1ccc(S(=O)(=O)Nc2ccccc2)cc1 [NP16-XL-043, 3-(6-cyanophenyl)-N-[(4-phenyl-sulfamoyl)phenyl]-acrylamide]",3.23
21,"O=C(/C=C/c1ccccn1)Nc1ccc(S(=O)(=O)Nc2ccccc2)cc1 [NP16-XL-044, 3-(pyridin-2-yl)-N-[(4-phenyl-sulfamoyl)phenyl]-acrylamide]",2.47
22,"O=C(/C=C/c1c(F)cccc1F)Nc1ccc(S(=O)(=O)N2CCCCC2)cc1 [NP16-XL-045, 3-(2,6-difluoro-phenyl)-N-[4-(1-piperidine-1-sulfonyl)phenyl]-acrylamide]",0.88
23,"N#Cc1ccccc1/C=C/C(=O)Nc1ccc(S(=O)(=O)N2CCCCC2)cc1 [NP16-XL-047, 3-(6-cyanophenyl)-N-[4-(1-piperidine-1-sulfonyl)phenyl]-acrylamide]",3.18
24,"O=C(/C=C/c1ccccc1Br)Nc1ccc(C(=O)Nc2ccccc2)cc1 [NP16-XL-048, 3-(6-bromphenyl)-N-[(4-phenylamine-carbonyl)phenyl]-acrylamide]",0.23
25,"N#Cc1ccccc1/C=C/C(=O)Nc1ccc(C(=O)Nc2ccccc2)cc1 [NP16-XL-049, 3-(6-cyanophenyl)-N-[(4-phenylamine-carbonyl)phenyl]-acryiamide]",0.21
26,"CN1CCN(S(=O)(=O)c2ccc(NC(=O)/C=C/c3ccccc3Br)cc2)CC1 [NP16-XL-052, 3-(6-bromophenyl)-N-[4-(4-methyl-1,4-piperazine-1-sulfonyl)phenyl]-acrylamide]",3.18
27,"CN1CCN(S(=O)(=O)c2ccc(NC(=O)/C=C/c3c(F)cccc3F)cc2)CC1 [NP16-XL-053, 3-(2,6-difluoro-phenyl)-N-[4-(4-methyl-1,4-piperazine-1-sulfonyl)phenyl]-acrylamide]",1.26
28,"CN1CCN(S(=O)(=O)c2ccc(NC(=O)/C=C/c3ccccc3F)cc2)CC1 [NP16-XL-054, 3-(6-fluorophenyl)-N-[4-(4-methyl-1,4-piperazine-1-sulfonyl)phenyl]-acrylamide]",2.86
29,"CN1CCN(S(=O)(=O)c2ccc(NC(=O)/C=C/c3ccccc3C#N)cc2)CC1 [NP16-XL-055, 3-(6-cyanophenyl)-N-[4-(4-methyl-1,4-piperazine-1-sulfonyl)phenyl]-acrylamide]",3.19

# From patent US11040949B2, “Compounds affecting pigment production and methods for treatment of bacterial diseases” (Versitech Limited, priority 2017, dated 2021)
